{"source": "BindingDB's records for doi:10.1021/jm00063a003", "about": "(Merck Sharp and Dohme Research Laboratories, 1993)", "assay": "Displacement of [3H]mesulergine from pig cortex 5-hydroxytryptamine 1C receptor"}
{"smiles": "NCCc1c[nH]c2ccc(Cc3nc(N)no3)cc12", "values": [{"measurement": "IC50", "value": 3.16, "unit": "µM"}]}
{"smiles": "CC(=O)Nc1ccc(Cc2noc(-c3ccc4[nH]cc(CCN)c4c3)n2)cc1", "values": [{"measurement": "IC50", "value": 1.58, "unit": "µM"}]}
{"smiles": "COc1ccc(Cc2noc(-c3ccc4[nH]cc(CCN)c4c3)n2)cc1", "values": [{"measurement": "IC50", "value": 0.794, "unit": "µM"}]}
{"smiles": "NCCc1c[nH]c2ccc(-c3nc(C4CC4)no3)cc12", "values": [{"measurement": "IC50", "value": 1, "unit": "µM"}]}
{"smiles": "CN(C)CCc1c[nH]c2ccc(Cc3nc(N)ns3)cc12", "values": [{"measurement": "IC50", "value": 0.251, "unit": "µM"}]}
{"smiles": "NCCc1c[nH]c2ccc(CCc3nc(Cc4ccccc4)no3)cc12", "values": [{"measurement": "IC50", "value": 0.794, "unit": "µM"}]}
{"smiles": "Cc1noc(-c2ccc3[nH]cc(CCN)c3c2)n1", "values": [{"measurement": "IC50", "value": 1.26, "unit": "µM"}]}
{"smiles": "NCCc1c[nH]c2ccc(-c3nc(Cc4ccccc4)no3)cc12", "values": [{"measurement": "IC50", "value": 3.98, "unit": "µM"}]}
{"smiles": "Cc1noc(Cc2ccc3[nH]cc(CCN(C)C)c3c2)n1", "values": [{"measurement": "IC50", "value": 1, "unit": "µM"}]}
{"smiles": "Cc1noc(Cc2ccc3[nH]cc(CCN)c3c2)n1", "values": [{"measurement": "IC50", "value": 1.26, "unit": "µM"}]}
{"smiles": "CN(C)CCc1c[nH]c2ccc(CCc3nc(N)no3)cc12", "values": [{"measurement": "IC50", "value": 1, "unit": "µM"}]}
{"smiles": "CS(=O)(=O)Nc1ccc(Cc2noc(-c3ccc4[nH]cc(CCN)c4c3)n2)cc1", "note": "[L-694247]", "values": [{"measurement": "IC50", "value": 0.316, "unit": "µM"}]}
